Reference: ChEMBL document CHEMBL4507275, “Data for DCP probe BI-2545” (2021)

Experiments:
[1] = biological target: Serine/threonine-protein kinase 35 (Homo sapiens) (UniProt Q8TDR2); details: Compound concentration 1000.0 nM
[2] = biological target: cAMP-dependent protein kinase catalytic subunit alpha (Homo sapiens) (UniProt P17612); details: Compound concentration 1000.0 nM
[3] = biological target: Fibroblast growth factor receptor 3 (Homo sapiens) (UniProt P22607); details: Compound concentration 1000.0 nM
[4] = biological target: Receptor-interacting serine/threonine-protein kinase 4 (Homo sapiens) (UniProt P57078); details: Compound concentration 1000.0 nM
[5] = biological target: Ribosomal protein S6 kinase alpha-2 (Homo sapiens) (UniProt Q15349); details: Compound concentration 1000.0 nM
[6] = biological target: Receptor tyrosine-protein kinase erbB-3 (Homo sapiens) (UniProt P21860); details: Compound concentration 1000.0 nM
[7] = biological target: Serine/threonine-protein kinase PLK2 (Homo sapiens) (UniProt Q9NYY3); details: Compound concentration 1000.0 nM
[8] = test system: Receptor-type tyrosine-protein kinase FLT3 (Homo sapiens), P36888 [D835Y]; details: Compound concentration 1000.0 nM
[9] = biological target: STE20-like serine/threonine-protein kinase (Homo sapiens) (UniProt Q9H2G2); details: Compound concentration 1000.0 nM
[10] = biological target: Ribosomal protein S6 kinase alpha-3 (Homo sapiens) (UniProt P51812); details: Compound concentration 1000.0 nM
[11] = test system: Epidermal growth factor receptor (Homo sapiens), P00533 [UNDEFINED MUTATION]; details: Compound concentration 1000.0 nM
[12] = biological target: Activin receptor type-1 (Homo sapiens) (UniProt Q04771); details: Compound concentration 1000.0 nM
[13] = biological target: Aurora kinase B (Homo sapiens) (UniProt Q96GD4); details: Compound concentration 1000.0 nM
[14] = biological target: Calcium/calmodulin-dependent protein kinase type 1 (Homo sapiens) (UniProt Q14012); details: Compound concentration 1000.0 nM
[15] = biological target: High affinity nerve growth factor receptor (Homo sapiens) (UniProt P04629); details: Compound concentration 1000.0 nM
[16] = biological target: MAP/microtubule affinity-regulating kinase 3 (Homo sapiens) (UniProt P27448); details: Compound concentration 1000.0 nM
[17] = biological target: Serine/threonine-protein kinase PLK4 (Homo sapiens) (UniProt O00444); details: Compound concentration 1000.0 nM
[18] = biological target: Activin receptor type-2B (Homo sapiens) (UniProt Q13705); details: Compound concentration 1000.0 nM
[19] = biological target: Peripheral plasma membrane protein CASK (Homo sapiens) (UniProt O14936); details: Compound concentration 1000.0 nM
[20] = biological target: Ribosomal protein S6 kinase alpha-5 (Homo sapiens) (UniProt O75582); details: Compound concentration 1000.0 nM
[21] = test system: Mast/stem cell growth factor receptor Kit (Homo sapiens), P10721 [A829P]; details: Compound concentration 1000.0 nM
[22] = biological target: Mitogen-activated protein kinase 13 (Homo sapiens) (UniProt O15264); details: Compound concentration 1000.0 nM
[23] = biological target: Casein kinase I isoform gamma-1 (Homo sapiens) (UniProt Q9HCP0); details: Compound concentration 1000.0 nM
[24] = test system: Phosphatidylinositol 4,5-bisphosphate 3-kinase catalytic subunit alpha isoform (Homo sapiens), P42336 [H1047Y]; details: Compound concentration 1000.0 nM
[25] = biological target: Dual specificity protein kinase TTK (Homo sapiens) (UniProt P33981); details: Compound concentration 1000.0 nM
[26] = biological target: AP2-associated protein kinase 1 (Homo sapiens) (UniProt Q2M2I8); details: Compound concentration 1000.0 nM
[27] = biological target: Alpha-1B adrenergic receptor (Homo sapiens) (UniProt P35368); details: Compound concentration 10.0 uM
[28] = biological target: Calcium/calmodulin-dependent protein kinase type II subunit delta (Homo sapiens) (UniProt Q13557); details: Compound concentration 1000.0 nM
[29] = test system: Mast/stem cell growth factor receptor Kit (Homo sapiens), P10721 [V559D,V654A]; details: Compound concentration 1000.0 nM
[30] = biological target: Mitogen-activated protein kinase 10 (Homo sapiens) (UniProt P53779); details: Compound concentration 1000.0 nM
[31] = biological target: Homeodomain-interacting protein kinase 2 (Homo sapiens) (UniProt Q9H2X6); details: Compound concentration 1000.0 nM
[32] = biological target: Ephrin type-B receptor 6 (Homo sapiens) (UniProt O15197); details: Compound concentration 1000.0 nM
[33] = biological target: Tyrosine-protein kinase Fes/Fps (Homo sapiens) (UniProt P07332); details: Compound concentration 1000.0 nM
[34] = test system: Mast/stem cell growth factor receptor Kit (Homo sapiens), P10721 [V559D]; details: Compound concentration 1000.0 nM
[35] = biological target: Serine/threonine-protein kinase DCLK2 (Homo sapiens) (UniProt Q8N568); details: Compound concentration 1000.0 nM
[36] = biological target: T1, Alpha-2A adrenergic receptor (Homo sapiens) (UniProt P08913); details: Compound concentration 10.0 uM
T1 sequence (whole entry): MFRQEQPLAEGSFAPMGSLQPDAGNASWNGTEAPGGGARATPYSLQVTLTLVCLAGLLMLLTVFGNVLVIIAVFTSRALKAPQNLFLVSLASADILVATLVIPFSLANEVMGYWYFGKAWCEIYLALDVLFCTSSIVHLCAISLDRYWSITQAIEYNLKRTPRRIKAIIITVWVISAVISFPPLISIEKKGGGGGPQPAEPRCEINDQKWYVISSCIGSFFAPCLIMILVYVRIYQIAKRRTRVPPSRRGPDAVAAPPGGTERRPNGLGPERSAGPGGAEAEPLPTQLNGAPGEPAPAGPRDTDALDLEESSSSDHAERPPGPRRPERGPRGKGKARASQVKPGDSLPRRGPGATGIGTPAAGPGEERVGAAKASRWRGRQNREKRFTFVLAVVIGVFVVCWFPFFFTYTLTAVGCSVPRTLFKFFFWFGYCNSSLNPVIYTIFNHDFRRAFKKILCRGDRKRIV

[37] = biological target: Homeodomain-interacting protein kinase 3 (Homo sapiens) (UniProt Q9H422); details: Compound concentration 1000.0 nM
[38] = biological target: SNF-related serine/threonine-protein kinase (Homo sapiens) (UniProt Q9NRH2); details: Compound concentration 1000.0 nM
[39] = biological target: Protein kinase C epsilon type (Homo sapiens) (UniProt Q02156); details: Compound concentration 1000.0 nM

Sequence of Calcium/calmodulin-dependent protein kinase type II subunit delta (Homo sapiens) (Q13557 whole entry): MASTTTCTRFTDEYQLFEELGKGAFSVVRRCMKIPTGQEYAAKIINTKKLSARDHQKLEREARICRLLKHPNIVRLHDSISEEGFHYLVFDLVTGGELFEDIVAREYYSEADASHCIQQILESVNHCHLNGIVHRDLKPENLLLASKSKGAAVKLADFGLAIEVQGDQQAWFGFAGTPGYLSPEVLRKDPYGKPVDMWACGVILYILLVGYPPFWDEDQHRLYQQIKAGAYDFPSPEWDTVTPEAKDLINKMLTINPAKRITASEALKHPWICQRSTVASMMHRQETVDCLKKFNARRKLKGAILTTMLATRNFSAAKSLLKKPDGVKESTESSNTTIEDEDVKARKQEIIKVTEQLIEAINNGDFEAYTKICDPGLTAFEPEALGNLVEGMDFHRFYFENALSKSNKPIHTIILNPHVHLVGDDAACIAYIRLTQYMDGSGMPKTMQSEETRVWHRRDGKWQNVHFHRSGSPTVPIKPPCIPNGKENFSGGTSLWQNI
Sequence of Activin receptor type-2B (Homo sapiens) (Q13705 whole entry): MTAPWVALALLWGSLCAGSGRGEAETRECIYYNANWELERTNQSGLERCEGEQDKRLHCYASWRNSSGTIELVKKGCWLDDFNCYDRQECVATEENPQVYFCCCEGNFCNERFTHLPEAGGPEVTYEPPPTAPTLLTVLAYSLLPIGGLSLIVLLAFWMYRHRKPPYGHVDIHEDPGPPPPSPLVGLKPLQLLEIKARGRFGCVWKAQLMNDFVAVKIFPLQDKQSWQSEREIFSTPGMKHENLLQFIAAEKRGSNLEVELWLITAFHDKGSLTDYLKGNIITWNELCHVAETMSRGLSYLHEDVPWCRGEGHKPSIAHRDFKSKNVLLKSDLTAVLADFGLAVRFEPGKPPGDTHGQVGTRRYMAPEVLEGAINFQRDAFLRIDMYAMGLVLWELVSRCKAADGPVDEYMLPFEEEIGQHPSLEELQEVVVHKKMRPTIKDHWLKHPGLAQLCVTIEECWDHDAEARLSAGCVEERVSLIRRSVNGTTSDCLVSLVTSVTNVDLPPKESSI
Sequence of Activin receptor type-1 (Homo sapiens) (Q04771 whole entry): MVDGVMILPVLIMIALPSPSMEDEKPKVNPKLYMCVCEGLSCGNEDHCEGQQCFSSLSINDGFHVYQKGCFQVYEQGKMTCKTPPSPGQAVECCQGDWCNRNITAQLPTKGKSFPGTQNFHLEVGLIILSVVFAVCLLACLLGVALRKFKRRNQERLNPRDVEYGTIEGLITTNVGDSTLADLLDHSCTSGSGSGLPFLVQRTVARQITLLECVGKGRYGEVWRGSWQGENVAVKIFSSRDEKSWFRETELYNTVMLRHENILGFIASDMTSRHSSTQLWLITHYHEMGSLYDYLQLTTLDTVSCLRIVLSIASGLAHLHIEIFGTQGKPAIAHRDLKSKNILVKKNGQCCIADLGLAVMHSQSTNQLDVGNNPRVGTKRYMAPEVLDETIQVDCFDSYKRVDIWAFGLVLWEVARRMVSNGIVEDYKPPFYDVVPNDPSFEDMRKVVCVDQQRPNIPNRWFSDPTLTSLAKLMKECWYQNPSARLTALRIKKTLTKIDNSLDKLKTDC
Sequence of Serine/threonine-protein kinase 35 (Homo sapiens) (Q8TDR2 whole entry): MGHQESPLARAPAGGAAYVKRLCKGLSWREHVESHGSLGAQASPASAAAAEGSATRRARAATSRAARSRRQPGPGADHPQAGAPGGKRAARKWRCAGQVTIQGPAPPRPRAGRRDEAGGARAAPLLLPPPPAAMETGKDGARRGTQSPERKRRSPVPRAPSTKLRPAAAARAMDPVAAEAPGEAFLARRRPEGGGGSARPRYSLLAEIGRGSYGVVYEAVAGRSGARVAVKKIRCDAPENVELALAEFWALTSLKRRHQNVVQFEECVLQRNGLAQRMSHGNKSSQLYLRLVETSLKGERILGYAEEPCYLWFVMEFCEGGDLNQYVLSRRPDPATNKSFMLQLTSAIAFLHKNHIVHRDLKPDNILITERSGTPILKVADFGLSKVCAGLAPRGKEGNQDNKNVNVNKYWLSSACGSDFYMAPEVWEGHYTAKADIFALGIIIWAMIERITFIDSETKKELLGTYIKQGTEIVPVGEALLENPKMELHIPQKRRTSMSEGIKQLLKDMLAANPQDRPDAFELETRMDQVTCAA
Sequence of Homeodomain-interacting protein kinase 3 (Homo sapiens) (Q9H422 whole entry, looked up): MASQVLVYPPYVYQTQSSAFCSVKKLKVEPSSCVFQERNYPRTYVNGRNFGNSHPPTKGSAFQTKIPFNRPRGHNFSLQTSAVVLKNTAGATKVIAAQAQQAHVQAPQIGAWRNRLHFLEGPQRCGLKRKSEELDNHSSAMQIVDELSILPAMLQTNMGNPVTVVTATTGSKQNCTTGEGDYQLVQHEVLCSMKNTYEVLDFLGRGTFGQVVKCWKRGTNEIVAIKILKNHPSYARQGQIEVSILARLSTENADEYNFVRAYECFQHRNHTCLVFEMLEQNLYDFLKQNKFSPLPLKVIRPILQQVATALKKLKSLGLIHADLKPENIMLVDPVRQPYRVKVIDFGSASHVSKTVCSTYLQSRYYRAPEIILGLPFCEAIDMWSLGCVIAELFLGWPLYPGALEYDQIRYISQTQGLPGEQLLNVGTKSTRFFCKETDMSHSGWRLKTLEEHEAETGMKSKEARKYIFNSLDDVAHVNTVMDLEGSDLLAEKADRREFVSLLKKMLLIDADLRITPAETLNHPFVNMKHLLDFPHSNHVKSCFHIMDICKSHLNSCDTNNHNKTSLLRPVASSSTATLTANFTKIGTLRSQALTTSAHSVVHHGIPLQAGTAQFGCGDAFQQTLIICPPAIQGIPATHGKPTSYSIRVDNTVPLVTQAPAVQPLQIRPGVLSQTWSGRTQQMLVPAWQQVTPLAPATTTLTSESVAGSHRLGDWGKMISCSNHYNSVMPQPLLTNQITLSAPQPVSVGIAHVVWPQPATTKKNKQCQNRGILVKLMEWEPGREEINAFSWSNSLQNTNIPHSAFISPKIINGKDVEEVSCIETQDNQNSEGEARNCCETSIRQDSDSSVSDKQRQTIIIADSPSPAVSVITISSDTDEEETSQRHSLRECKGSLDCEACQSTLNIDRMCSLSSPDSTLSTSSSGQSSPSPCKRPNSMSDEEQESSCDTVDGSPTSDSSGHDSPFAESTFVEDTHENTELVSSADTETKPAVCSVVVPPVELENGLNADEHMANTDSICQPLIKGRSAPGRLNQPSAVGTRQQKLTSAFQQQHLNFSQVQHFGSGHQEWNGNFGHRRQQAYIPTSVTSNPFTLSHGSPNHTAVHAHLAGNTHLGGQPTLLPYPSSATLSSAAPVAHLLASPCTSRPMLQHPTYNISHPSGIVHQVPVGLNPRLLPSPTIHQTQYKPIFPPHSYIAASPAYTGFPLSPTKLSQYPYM
Sequence of STE20-like serine/threonine-protein kinase (Homo sapiens) (Q9H2G2 whole entry, looked up): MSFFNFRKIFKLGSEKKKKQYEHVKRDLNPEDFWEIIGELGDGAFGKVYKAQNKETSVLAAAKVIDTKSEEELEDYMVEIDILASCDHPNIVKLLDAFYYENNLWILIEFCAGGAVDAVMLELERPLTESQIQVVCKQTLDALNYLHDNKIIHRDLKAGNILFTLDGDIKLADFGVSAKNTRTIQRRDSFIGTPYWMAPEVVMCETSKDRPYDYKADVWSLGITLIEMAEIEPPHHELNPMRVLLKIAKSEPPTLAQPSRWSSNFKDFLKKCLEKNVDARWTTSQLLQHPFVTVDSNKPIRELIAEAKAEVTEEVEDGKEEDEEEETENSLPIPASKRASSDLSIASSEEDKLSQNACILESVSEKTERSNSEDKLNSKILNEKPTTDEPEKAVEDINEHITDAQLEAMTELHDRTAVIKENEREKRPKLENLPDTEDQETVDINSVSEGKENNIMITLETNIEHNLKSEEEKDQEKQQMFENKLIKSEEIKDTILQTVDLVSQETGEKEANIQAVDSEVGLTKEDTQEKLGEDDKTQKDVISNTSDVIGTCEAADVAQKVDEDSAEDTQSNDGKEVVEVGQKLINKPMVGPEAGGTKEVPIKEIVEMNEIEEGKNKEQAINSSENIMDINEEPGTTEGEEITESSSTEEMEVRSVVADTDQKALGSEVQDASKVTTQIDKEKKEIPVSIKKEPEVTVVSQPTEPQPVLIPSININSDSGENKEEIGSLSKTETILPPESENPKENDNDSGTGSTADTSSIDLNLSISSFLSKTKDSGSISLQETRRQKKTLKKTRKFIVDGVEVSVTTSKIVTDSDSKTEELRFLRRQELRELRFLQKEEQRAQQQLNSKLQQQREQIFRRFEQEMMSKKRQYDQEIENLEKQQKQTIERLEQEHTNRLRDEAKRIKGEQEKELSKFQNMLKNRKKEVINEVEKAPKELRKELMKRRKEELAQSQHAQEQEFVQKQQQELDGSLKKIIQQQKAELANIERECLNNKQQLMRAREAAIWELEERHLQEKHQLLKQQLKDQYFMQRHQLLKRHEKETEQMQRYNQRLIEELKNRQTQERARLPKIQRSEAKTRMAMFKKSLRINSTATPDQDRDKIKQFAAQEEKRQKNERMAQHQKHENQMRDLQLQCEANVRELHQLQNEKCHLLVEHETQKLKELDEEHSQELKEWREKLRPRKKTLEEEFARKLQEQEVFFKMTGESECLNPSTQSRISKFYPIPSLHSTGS
Sequence of Aurora kinase B (Homo sapiens) (Q96GD4 whole entry): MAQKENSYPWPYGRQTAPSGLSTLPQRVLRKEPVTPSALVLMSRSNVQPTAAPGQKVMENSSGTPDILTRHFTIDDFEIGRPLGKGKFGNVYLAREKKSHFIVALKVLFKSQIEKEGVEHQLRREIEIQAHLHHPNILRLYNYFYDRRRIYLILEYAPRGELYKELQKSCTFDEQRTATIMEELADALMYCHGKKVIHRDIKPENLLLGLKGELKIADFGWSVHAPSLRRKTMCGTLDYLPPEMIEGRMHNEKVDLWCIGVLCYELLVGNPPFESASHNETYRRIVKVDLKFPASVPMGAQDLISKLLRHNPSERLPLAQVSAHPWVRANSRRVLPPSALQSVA

| Compound | residual activity [1] [%] | residual activity [2] [%] | residual activity [3] [%] | residual activity [4] [%] | residual activity [5] [%] | residual activity [6] [%] | residual activity [7] [%] | residual activity [8] [%] | residual activity [9] [%] | residual activity [10] [%] | residual activity [11] [%] | residual activity [12] [%] | residual activity [13] [%] | residual activity [14] [%] | residual activity [15] [%] | residual activity [16] [%] | residual activity [17] [%] | residual activity [18] [%] | residual activity [19] [%] | residual activity [20] [%] | other results |
| --- | --- | --- | --- | --- | --- | --- | --- | --- | --- | --- | --- | --- | --- | --- | --- | --- | --- | --- | --- | --- | --- |
| Cc1nccc(COC(=O)N2C[C@@H]3[C@@H](CNC(=O)c4ccc5[nH]nnc5c4)[C@@H]3C2)n1 [BI 3017] | 83 | 88 | 93 | 98 | 91 | 59 | 82 | 100 | 100 | 100 | 87 | 95 | 93 | 93 | 94 | 95 | 83 | 91 | 72 | 95 | residual activity [21]: 94%; residual activity [22]: 98%; residual activity [23]: 100%; residual activity [24]: 82%; residual activity [25]: 89%; residual activity [26]: 100%; inhibition [27]: 30.2%; residual activity [28]: 100%; residual activity [29]: 41%; residual activity [30]: 100%; residual activity [31]: 81%; residual activity [32]: 99%; residual activity [33]: 99%; residual activity [34]: 86%; residual activity [35]: 100%; inhibition [36]: 2.2%; residual activity [37]: 76%; residual activity [38]: 98%; residual activity [39]: 100% |
| O=C(NC[C@@H]1[C@H]2CN(C(=O)OCc3cc(C(F)(F)F)cc(C(F)(F)F)c3)C[C@@H]12)c1ccc2[nH]nnc2c1 [BI 2545] | 100 | 100 | 82 | 100 | 84 | 96 | 89 | 100 | 100 | 94 | 100 | 100 | 84 | 77 | 85 | 100 | 82 | 100 | 70 | 100 | residual activity [21]: 100%; residual activity [22]: 100%; residual activity [23]: 97%; residual activity [24]: 62%; residual activity [25]: 91%; residual activity [26]: 96%; inhibition [27]: 33.4%; residual activity [28]: 100%; residual activity [29]: 99%; residual activity [30]: 90%; residual activity [31]: 100%; residual activity [32]: 100%; residual activity [33]: 95%; residual activity [34]: 88%; residual activity [35]: 100%; inhibition [36]: 14.3%; residual activity [37]: 89%; residual activity [38]: 77%; residual activity [39]: 100% |
